Activity calls are given as the source filed them. No cut-off for these calls is given here.

Data set [1] concerns the target T1, Protein cereblon/Cyclin-dependent kinase 5 (Homo sapiens, UniProt Q00535+Q96SW2). The experiment in a line: PROTAC activity at CRBN/CDK5 in human PANC-1 cells assessed as induction of CDK5 degradation by measuring maximal efficacy by target engagement binding based cell-ELISA relative to control. Background: In an ELISA, binding on a coated surface is turned into a signal by an enzyme label.
Target sequence in this assay (Q00535 whole entry, looked up): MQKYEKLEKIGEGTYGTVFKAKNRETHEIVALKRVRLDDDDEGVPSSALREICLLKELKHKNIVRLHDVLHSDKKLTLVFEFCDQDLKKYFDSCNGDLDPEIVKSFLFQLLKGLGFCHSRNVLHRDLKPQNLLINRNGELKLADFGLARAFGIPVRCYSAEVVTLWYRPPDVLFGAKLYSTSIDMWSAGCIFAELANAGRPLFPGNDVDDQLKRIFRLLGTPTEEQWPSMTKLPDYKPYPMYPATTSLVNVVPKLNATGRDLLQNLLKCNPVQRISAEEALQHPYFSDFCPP
Target sequence in this assay (Q96SW2 whole entry, looked up): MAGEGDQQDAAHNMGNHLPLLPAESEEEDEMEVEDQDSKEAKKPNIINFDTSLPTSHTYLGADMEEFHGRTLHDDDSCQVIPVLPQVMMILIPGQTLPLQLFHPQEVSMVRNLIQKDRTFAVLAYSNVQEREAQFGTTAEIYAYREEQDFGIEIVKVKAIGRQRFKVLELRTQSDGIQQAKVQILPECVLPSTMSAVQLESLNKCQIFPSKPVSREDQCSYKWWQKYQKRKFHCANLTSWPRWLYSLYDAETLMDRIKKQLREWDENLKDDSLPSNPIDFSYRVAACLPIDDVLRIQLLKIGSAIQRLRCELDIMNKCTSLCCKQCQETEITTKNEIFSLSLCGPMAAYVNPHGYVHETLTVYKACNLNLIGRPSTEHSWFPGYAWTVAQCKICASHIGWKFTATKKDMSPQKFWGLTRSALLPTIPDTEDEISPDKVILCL

For data set [2], the target named is T2, Protein cereblon/Glycogen synthase kinase-3 beta (Homo sapiens, UniProt P49841+Q96SW2). The experiment in a line: PROTAC activity at CRBN/GSK3beta in human PANC-1 cells assessed as induction of GSK3beta degradation by measuring maximal efficacy by target engagement binding based cell-ELISA relative to control.
Target sequence in this assay (P49841 whole entry, looked up): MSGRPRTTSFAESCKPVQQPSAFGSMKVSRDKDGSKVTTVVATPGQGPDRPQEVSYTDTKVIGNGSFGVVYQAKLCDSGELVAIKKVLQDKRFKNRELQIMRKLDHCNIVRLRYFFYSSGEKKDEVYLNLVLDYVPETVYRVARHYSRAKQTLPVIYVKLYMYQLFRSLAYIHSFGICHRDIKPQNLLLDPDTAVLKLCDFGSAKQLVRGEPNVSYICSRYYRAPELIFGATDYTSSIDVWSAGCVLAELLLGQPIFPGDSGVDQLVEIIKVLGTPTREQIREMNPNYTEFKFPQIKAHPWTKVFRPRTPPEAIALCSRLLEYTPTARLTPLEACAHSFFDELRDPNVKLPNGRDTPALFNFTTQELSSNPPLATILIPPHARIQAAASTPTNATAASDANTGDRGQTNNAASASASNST
Target sequence in this assay (Q96SW2 whole entry, looked up): as the sequence (Q96SW2 whole entry, looked up) above
A further data set relates to BXPC-3. The experiment in a line: Antiproliferative activity against human BXPC-3 cells assessed as inhibition of cell viability by MTT assay. It counts as functional, cell-based. A general note: Tetrazolium assays rely on reduction of a dye to a coloured formazan, in cell work by metabolically active cells.
The next data set relates to ASPC1. The experiment in a line: Antiproliferative activity against human ASPC1 cells assessed as inhibition of cell viability by MTT assay. The format is functional, cell-based.
In data set [3] the target is T1, Protein cereblon/Cyclin-dependent kinase 5. Put plainly: PROTAC activity at CRBN/CDK5 in human PANC-1 cells assessed as induction of CDK5 degradation by target engagement binding based cell-ELISA.
Target sequence in this assay (Q00535 whole entry): as the sequence (Q00535 whole entry, looked up) above
Target sequence in this assay (Q96SW2 whole entry): as the sequence (Q96SW2 whole entry, looked up) above
Data set [4] shares this target. Put plainly: PROTAC activity at CRBN/CDK5 in human PANC-1 cells assessed as induction of CDK5 degradation at 0.5 to 2.8 uM incubated for 10 hrs in presence of MG132 by Western blot analysis. It counts as cell-based. The settings on record: dose 0.5-2.8 µM. Background: In western blotting, separated proteins are transferred to a membrane and probed.
Target sequence in this assay (Q00535 whole entry, looked up): as the sequence (Q00535 whole entry, looked up) above
Target sequence in this assay (Q96SW2 whole entry, looked up): as the sequence (Q96SW2 whole entry, looked up) above
Data set [5] has as its target T2, Protein cereblon/Glycogen synthase kinase-3 beta. Put plainly: PROTAC activity at CRBN/GSK3beta in human PANC-1 cells assessed as induction of GSK3beta degradation at 0.5 to 2.8 uM incubated for 10 hrs in presence of MG132 by Western blot analysis. The settings on record: dose 0.5-2.8 µM. It counts as cell-based.
Target sequence in this assay (P49841 whole entry, looked up): as the sequence (P49841 whole entry, looked up) above
Target sequence in this assay (Q96SW2 whole entry, looked up): as the sequence (Q96SW2 whole entry, looked up) above
For a further data set, the system named is MIA PaCa-2. The experiment in a line: Antiproliferative activity against human MIA PaCa-2 cells assessed as inhibition of cell viability by MTT assay. It counts as functional, cell-based.
Data set [6] deals with T2, Protein cereblon/Glycogen synthase kinase-3 beta. Put plainly: PROTAC activity at CRBN/GSK3beta in human PANC-1 cells assessed as induction of GSK3beta degradation by target engagement binding based cell-ELISA.
Target sequence in this assay (P49841 whole entry): as the sequence (P49841 whole entry, looked up) above
Target sequence in this assay (Q96SW2 whole entry): as the sequence (Q96SW2 whole entry, looked up) above
The subject of a further data set is PANC-1. The experiment in a line: Antiproliferative activity against human PANC-1 cells assessed as inhibition of cell viability by MTT assay. It counts as functional, cell-based.
A short description of data set [7]: Permeability of compound in PBS at pH 7.4 at 500 uM incubated for 4 hrs by UV spectrophotometry based PAMPA. The format is ADME. The settings on record: read-out: permeability.
For data set [8], the target named is T1, Protein cereblon/Cyclin-dependent kinase 5. The experiment in a line: PROTAC activity at CRBN/CDK5 in human PANC-1 cells assessed as induction of CDK5 degradation at 1 to 2.8 uM incubated for 10 hrs by Western blot analysis. The settings on record: dose 1-2.8 µM. The format is cell-based.
Target sequence in this assay (Q00535 whole entry, looked up): as the sequence (Q00535 whole entry, looked up) above
Target sequence in this assay (Q96SW2 whole entry, looked up): as the sequence (Q96SW2 whole entry, looked up) above
The target in data set [9] is T2, Protein cereblon/Glycogen synthase kinase-3 beta. The experiment in a line: PROTAC activity at CRBN/GSK3beta in human PANC-1 cells assessed as induction of GSK3beta degradation at 1 to 2.8 uM incubated for 10 hrs by Western blot analysis. It counts as cell-based. The settings on record: dose 1-2.8 µM.
Target sequence in this assay (P49841 whole entry, looked up): as the sequence (P49841 whole entry, looked up) above
Target sequence in this assay (Q96SW2 whole entry, looked up): as the sequence (Q96SW2 whole entry, looked up) above
Data set [10] is described as follows: Cytotoxicity against human A549 cells. The format is toxicity, cell-based.
Data set [11] is described as follows: Metabolic stability in pooled human liver microsomes assessed as half-life at 100 uM measured upto 120 mins by LC-MS/MS analysis. It counts as ADME, Microsome.
Data set [12] can be described thus: Cytotoxicity against human HepG2 cells. The format is toxicity, cell-based.
The target of data set [13] is Protein cereblon/Cyclin-dependent kinase 2 (Homo sapiens, UniProt P24941+Q96SW2). Put plainly: PROTAC activity at CRBN/CDK2 (unknown origin) assessed as induction of CDK2 degradation. It counts as protein assay.
The target of another data set is T3, Cytochrome P450 2B6 (Homo sapiens, UniProt P20813).
T3 sequence (P20813 whole entry): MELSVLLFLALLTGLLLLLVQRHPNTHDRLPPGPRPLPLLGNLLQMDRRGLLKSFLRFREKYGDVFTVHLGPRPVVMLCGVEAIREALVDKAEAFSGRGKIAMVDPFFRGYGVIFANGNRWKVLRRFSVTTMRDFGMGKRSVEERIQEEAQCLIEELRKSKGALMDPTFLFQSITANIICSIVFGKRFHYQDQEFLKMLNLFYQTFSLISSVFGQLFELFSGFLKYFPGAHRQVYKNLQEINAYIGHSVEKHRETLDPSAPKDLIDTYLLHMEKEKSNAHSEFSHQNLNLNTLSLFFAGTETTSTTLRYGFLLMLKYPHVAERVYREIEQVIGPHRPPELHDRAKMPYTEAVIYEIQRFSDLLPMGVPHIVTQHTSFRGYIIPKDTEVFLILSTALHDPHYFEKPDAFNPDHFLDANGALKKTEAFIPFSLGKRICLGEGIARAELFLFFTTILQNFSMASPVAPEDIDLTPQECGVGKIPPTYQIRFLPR
The experiment in a line: Inhibition of CYP2B6 (unknown origin) using bupropion as substrate […]. It counts as ADME.

`O=C1CCC(N2C(=O)c3cccc(NCCOCCOCCOCCOCCOCn4cc(CN5CCN(CCCn6cc(C7=C(c8c[nH]c9ccccc89)C(=O)NC7=O)c7ccccc76)CC5)nn4)c3C2=O)C(=O)N1` (centres undefined): the values for the Emax in [1] and in data set [2] were 78% and 75%, respectively. Further, the 50% inhibitory concentration (IC50) (commonly the point on the concentration scale where inhibition reaches its midpoint) was determined as 4870 nM in the data set with BXPC-3, 3350 nM in the data set with ASPC1, 4670 nM in the data set with MIA PaCa-2 and 5720 nM in the data set with PANC-1. Further, the DC50 – broadly, the concentration at which degradation of the target reaches its halfway point – in data set [3] was 330 nM; in data set [6], 220 nM. Moreover, the outcome in [4] and in [5] was inactive.

For `O=C1CCC(N2C(=O)c3cccc(NCCOCCOCCOCC(=O)N4CCC(NC(=O)c5c[nH]nc5NC(=O)c5c(Cl)cccc5Cl)CC4)c3C2=O)C(=O)N1` (centres undefined), the values for the maximal response (Emax) in data set [1] and in [2] were 92% and 89%, respectively. The IC50 came to 3140 nM in the data set with BXPC-3, 3570 nM in the data set on ASPC1, 3810 nM with MIA PaCa-2 and 2750 nM with PANC-1. Moreover, the DC50 in data set [3] was determined as 36 nM; in [6], 90 nM. Also, the outcome in data set [4] and in data set [5] was inactive. In data set [7], the Papp at 4 h, 500 µM came to 61.2 ×10⁻⁶ cm/s.

For the compound `O=C1CCC(N2C(=O)c3ccc(N4CCN(CCOCCC(=O)N5CCC(NC(=O)c6c[nH]nc6NC(=O)c6c(Cl)cccc6Cl)CC5)CC4)cc3C2=O)C(=O)N1` (centres undefined), the Emax (commonly the greatest response seen or fitted, relative to the assay's reference) came out at 90% in [1] and 89% in data set [2]. The IC50 in the data set on BXPC-3 stood at 2210 nM; with ASPC1, 2250 nM; in the data set on MIA PaCa-2, 2190 nM; in the data set on PANC-1 it was 1950 nM. In addition, the DC50 in [3] was 32 nM; in data set [6] it was 98 nM. Besides, the result in data set [8] and in data set [9] was Active. In addition, the result in data set [4] and in [5] was inactive. Also, the Papp at 4 h, 500 µM in data set [7] was found to be 38.6 ×10⁻⁶ cm/s.

For the compound `CC(=O)c1c(C)c2cnc(Nc3ccc(N4CCNCC4)cn3)nc2n(C2CCCC2)c1=O` [PALBOCICLIB], the CC50 (as a rule, the concentration at which the toxic effect on the cells reaches its halfway point) worked out at 7950 nM in [10] and 8120 nM in data set [12]. In data set [11], the half-life (in general, the time in which the quantity being followed falls by half) at 100 µM worked out at 57 min.

With `Cc1cc(=O)n(-c2ccccc2)n1C` [ANTIPYRINE], in [7], the Papp at 4 h, 500 µM worked out at 15.2 ×10⁻⁶ cm/s.

For `CN(CCC(=O)N1CCC(NC(=O)c2c[nH]nc2NC(=O)c2c(Cl)cccc2Cl)CC1)C(=O)CNc1cccc2c1C(=O)N(C1CCC(=O)NC1=O)C2=O` (centres undefined), the results for the Emax in data set [1] and in [2] were 90% and 78%, respectively. The IC50 in the data set on BXPC-3 turned out to be 2890 nM; with ASPC1 it was 2560 nM; in the data set on MIA PaCa-2 it was 3120 nM; in the data set on PANC-1, 2340 nM. For the same compound, the DC50 in data set [3] was 45 nM; in data set [6], 152 nM. Also, the result in data set [4] and in [5] was inactive. In addition, the Papp at 4 h, 500 µM in [7] was 31.3 ×10⁻⁶ cm/s.

For `O=C1CCC(N2C(=O)c3ccc(N4CCN(CCOCCC(=O)N5CCN(CCCn6cc(C7=C(c8c[nH]c9ccccc89)C(=O)NC7=O)c7ccccc76)CC5)CC4)cc3C2=O)C(=O)N1` (centres undefined), the Emax stood at 89% in data set [1] and 88% in [2]. Moreover, the IC50 was 2870 nM in the data set on BXPC-3, 3870 nM in the data set with ASPC1, 2430 nM in the data set with MIA PaCa-2 and 2500 nM with PANC-1. Also, the DC50 in data set [3] was 52 nM; in data set [6], 56 nM. For the same compound, the outcome in data set [8] and in data set [9] was Active. Besides, the result in data set [4] and in data set [5] was inactive. In [7], the Papp at 4 h, 500 µM amounted to 69.2 ×10⁻⁶ cm/s.

For `Cc1cscc1C(=O)n1nc(Nc2ccc(S(=O)(=O)NCCOCc3cn(CCOCCOCCNc4cccc5c4C(=O)N(C4CCC(=O)NC4=O)C5=O)nn3)cc2)nc1N` (centres undefined), in data set [13], the DC50 stood at 61 nM.

On to `OC[C@@H](O)[C@@H](O)[C@H](O)[C@H](O)CO` [MANNITOL], for which the Papp at 4 h, 500 µM in data set [7] was 4.08 ×10⁻⁶ cm/s.

As to `CN[C@H]1CC[C@@H](c2ccc(Cl)c(Cl)c2)c2ccccc21` [SERTRALINE], half-maximal inhibition against Cytochrome P450 2B6 (IC50) required 12500 nM.

Regarding `O=C1CCC(N2C(=O)c3cccc(NCC(=O)N4CCC(C(=O)N5CCN(CCCn6cc(C7=C(c8c[nH]c9ccccc89)C(=O)NC7=O)c7ccccc76)CC5)CC4)c3C2=O)C(=O)N1` (centres undefined), the figures for the Emax in [1] and in data set [2] were 78% and 81%, respectively. For the same compound, the IC50 in the data set on BXPC-3 stood at 3540 nM; in the data set on ASPC1, 3580 nM; in the data set with MIA PaCa-2 it was 3010 nM; with PANC-1, 2810 nM. For the same compound, the DC50 in data set [3] is 321 nM; in data set [6] it was 125 nM. The result in data set [4] and in data set [5] was inactive.

For the compound `O=C1Cc2c([nH]c3ccc(Br)cc23)-c2ccccc2N1` [KENPAULLONE], the IC50 in the data set on BXPC-3 is 9100 nM; in the data set on ASPC1 it was 6500 nM; in the data set with MIA PaCa-2 it was 7200 nM; in the data set with PANC-1 it was 8600 nM.

Regarding `O=C1CCC(N2C(=O)c3cccc(NCCOCCOCCOCC(=O)N4CCN(CCCn5cc(C6=C(c7c[nH]c8ccccc78)C(=O)NC6=O)c6ccccc65)CC4)c3C2=O)C(=O)N1` (centres undefined), the results for the Emax in [1] and in [2] were 81% and 87%, respectively. Besides, the IC50 in the data set with BXPC-3 was found to be 5980 nM; in the data set with ASPC1 it was 5560 nM; in the data set on MIA PaCa-2, 6610 nM; in the data set on PANC-1 it was 5150 nM. For the same compound, the DC50 in data set [3] stood at 210 nM; in [6] it was 96 nM. For the same compound, the outcome in [4] and in [5] was inactive.

For the origin of these results see ChEMBL document CHEMBL6114965, “Novel dual-targeting PROTAC degraders of GSK-3β and CDK5: A promising approach for pancreatic cancer treatment” (Bioorg Med Chem, 2025).
